What was measured:
HIV = conditions: cited from earlier work
[1] = test system: p-388 lymphocyte leukemia; conditions: cited from earlier work
Male wistar rats = assay: Carbon tetrachloride induced hepatotoxicity in rats (serum AST and ALT); assay type: in vivo, rat; conditions: for Protection against CCl4 induced toxicity: orally, rats
Procedure: Carbon tetrachloride is a classical method to induce free radical mediated hepatotoxicity. In order to evaluate the free radical mediated hepatotoxicity and heptoprotective properties in the compound (−)-wikstromol, this method was employed. Male wistar rats were selected for study. The compound was dissolved in a small amount of DMSO and reconstituted in gum acacia/water. The compound was given one hour before CCl4 administration to the over-night fasted rats in a dose of 250 mg/kg-body weight, orally. After one hour, a mixture of CCl4 and liquid paraffin (1:1, v/v) in the dose of 2.5 ml/kg was given orally. Fasting was continued. However, water was provided ad-libitum. After 5 hrs of CCl4 administration, blood was taken out from the retroorbital plexus. Serum aspartase transaminase and serum alanine transaminase was measured as a marker of hepatotoxicity.
Carbon tetrachloride induced toxicity was repeated as referred in the example 2 by changing the dosage level to 300 mg/kg-body weight, orally. Fasting was continued. However, water was provided ad-libitum. After 5hrs of CCl4 administration, blood was taken out from the retroorbital plexus. Serum aspartase transaminase and serum alanine transaminase was measured as a marker of hepatotoxicity.

[2] = serum, 5 hours after CCl4 administration, compound 250 mg/kg orally one hour before CCl4 2.5 ml/kg, mean ± SD

COc1cc(C[C@@H]2COC(=O)[C@@]2(O)Cc2ccc(O)c(OC)c2)ccc1O [(−)-wikstromol, 4,4^1,8-trihydroxy-3,3^1-dimethoxyliganan-9,9^1-olide]
Anti-HIV activity (HIV): anti-HIV activity
Activity against p-388 lymphocyte leukemia [1]: active
Protection against CCl4 induced toxicity (Male wistar rats; 250 mg/kg-body weight): significantly prevented CCl4 induced toxicity
Protection against CCl4 induced toxicity (Male wistar rats; 300 mg/kg-body weight): shows significant activity and prevented CCl4 induced toxicity
Hepatoprotective effectiveness (Male wistar rats; dosage of 250 to 300 mg/kg of body weight): highly effective
ALT (U/L) Before (Male wistar rats; serum alanine transaminase before oral administration of compound and CCl4, mean ± SD, 250 mg/kg group): 42 ± 7 U/L
AST (U/L) Before (Male wistar rats; serum aspartate transaminase before oral administration of compound and CCl4, mean ± SD, 250 mg/kg group): 281 ± 91 U/L
ALT (U/L) After (Male wistar rats; [2]): 188 ± 66 U/L
AST (U/L) After (Male wistar rats; [2]): 557 ± 126 U/L
